Experimental data as given in patent US7863251B2, “Hepatic stellate cell specific promoter and uses thereof” (Agency for Science, Technology and Research, priority 2005, dated 2011).

What was measured:
[1] = test system: endogenous GFAP mRNA in T6/lacZ/C1 cells; assay: Real-time RT-PCR for endogenous rat GFAP mRNA in T6/lacZ/C1 cells; format: cell-based; details: TGF-β1 1 ng/ml
Experimental: Total RNA was reverse transcribed to cDNA using Taqman's reverse transcription reagent (Cat. # N808-0234A total of […] of RNA in 7.7 μl nuclease-free water was added to 2 μl 10× reverse transcriptase buffer, 4.4 μl 25 mM magnesium chloride, 4 μl deoxyNTP mixtures, 1 μl random hexamers, 0.4 μl RNase inhibitor and 0.5 μl reverse transcriptase (50 U/μl) in a final reaction volume of 20 μl. The reaction was performed for 10 min at 25° C. (annealing), 30 min at 48° C. (cDNA synthesis) and 5 min at 95° C. (enzyme denaturation).
Real-time quantitative PCR was carried out with an ABI 7500 Real Time PCR System (Applied Biosystems, CA, USA). One microliter of sample cDNA was used in each PCR reaction, with the housekeeping β-actin gene as a reference for normalization. The primers and probes for rat β-actin and GFAP were purchased from Taqman's assay-on-demand database. The PCR reaction was performed under a default profile consisting of 50° C. for 2 min (UNG activation), 95° C. for 10 min (enzyme denaturation) and 40 cycles of amplification (denaturation 15 seconds, annealing and extension 60 seconds).
Relative quantitation of the target mRNA was calculated using the comparative threshold cycle (CT) methods as described in the User Bulletin #2 (ABI Prism 7700 Sequence Detection System). CT indicates the fractional cycle number at which the amount of amplified target reaches a fixed threshold within the linear phase of gene amplification. ΔCT, which reflects the difference between CT target and CT β-actin, is inversely correlated to the abundance of mRNA transcripts in the samples. ΔCT for each sample was normalized against control experiment or calibrator and expressed as ΔΔCT. Relative quantitation is given by 2^−ΔΔCT to express the up-regulation or down-regulation of the target gene under the treatments compared to the control.
It was known that GFAP, along with desmin, SMAA, and vimentin, was expressed in the clonal T6 cells (Vogel et al. (2000), J Lipid Res. 41(6):882). Naturally, the endogenous GFAP should be expressed in the T6/lacZ/C1 cells as well. In order to investigate how the endogenous GFAP expression is regulated by TGF-β1 in the T6/lacZ/C1 cells during different time course, we quantified rat GFAP mRNA level using a real-time RT-PCR method. Cells were similarly grown and treated with TGF-β1 (1 ng/ml) for various times (0, 2, 8, 16, 24, 48 and 72 hours), as described for the enzymatic assay experiments above. Total RNA was isolated from different cells and quantified as described in Materials and Methods, and the results were depicted in FIG. 11.

[2] = test system: T6/lacZ/C1 cells (2.2 kb hGFAP-lacZ transgene); assay: Quantitative solution assay of β-galactosidase activity in T6/lacZ/C1 cell extracts; format: cell-based, rat
Experimental: To quantify the β-galactosidase activity in cell extracts reported in FIGS. 4 to 10, an enzyme assay kit (E2000, Promega, Wis., USA) was used to measure the specific activity of β-galactosidase, according to the manufacturer's instructions in a 96-well format. Briefly, the cells were washed twice with 1×PBS buffer (pH7.4), lysed for 15 minutes at room temperature with the reporter lysis buffer, and harvested using a cell scraper. The total cell extracts were appropriately diluted (5-10 fold), and assayed for the enzyme activity. The specific β-galactosidase activity was expressed in milliunit per milliliter (mU/ml) using a standard curve established from the β-galactosidase standard (provided with the kit). The protein concentration was measured with a BCA protein assay kit (Pierce, Ill., USA), and used to further convert the specific β-galactosidase activity from mU/ml to mU/μg total cellular protein. Six independent experiments were performed for each time and concentration data point.
(§1) Cells were seeded into 12-well plates in full DMEM and 500 μg/ml Zeocin. Twelve hours prior to the cytokine treatment, medium was changed so that the cells were allowed to grow in low serum (0.5% FBS) DMEM. The cells at a confluence of 70-80% were incubated with various concentrations (0, 0.1, 1 and 10 […]) of recombinant human TGF-β1, PDGF-BB (BioVision, CA, USA) and 0, 0.1, 1 and 10 μg/ml lipopolysaccharide (LPS E. coli, Sigma) respectively for 0, 2, 8, 16, 24, 48 and 72 hours before they were harvested for β-galactosidase activity assay and real-time RT-PCR GFAP assay.
A β-galactosidase activity assay kit (Promega, Wis., USA) was used to measure transgene expression level in the T6/lacZ/C1 clone, using the nontransfected T6 as a negative basal control. When grown in the full DMEM medium to 70-80% confluence, the T6/lacZ/C1 cells yielded an average reading of approximately 0.5 mU/μg, about five times of that in normal T6 cells. The basal reading in the T6 cells was not influenced by the addition of cytokines or LPS (data not shown). For comparison purpose, the β-galactosidase activity in a randomly selected C6 clone containing the 2.2 kb hGFAP-lacZ transgene (designated as C6/lacZ/C4) was measured to have an activity of about 2 mU/μg, […] of that in the T6/lacZ/C1 cells. When incubated with TGF-β1 (0 to 10 ng/ml), the C6/lacZ/C4 cells yielded an induction dynamics of 130 to 200% of the untreated control.
To quantify specific transgene response to TGF-β1, we first set up an experiment to assess possible effects that serum concentration and culture duration may have on the transgene expression. T6/lacZ/C1 cells were initially grown in DMEM with high serum (10% FBS), and then some of the cells were starved with a DMEM with low serum (0.5% FBS) for 12 hours prior to the addition of TGF-β1 (1 ng/ml). After incubation for various times (0, 2, 8, 24, 48 and 72 hours), cells were harvested for β-galactosidase activity assay. […] After 72 hours, the level slipped to 58% of the value at 0 hour (P<0.001). The assay results were depicted in FIG. 8.
To further dissect the TGF-β1 contribution to the transgene induction, we treated T6/lacZ/C1 cells grown in low serum with various concentrations of TGF-β1 (0, 0.1, 1, 10 ng/ml) and assayed the enzymatic activity for three time points (24, 48 and 72 hours). The assay results were plotted in FIG. 9. […] When the non-treatment groups were normalized to 1 and the magnitude of induction were plotted for the 10 ng/ml treatment groups at all three time points (FIG. 10), a trend of increasing induction with time was apparent.

[3] = test system: T6/lacZ/C1 cells (2.2 kb hGFAP-lacZ transgene); assay: X-gal staining of T6/lacZ/C1 cells treated with TGF-β1, PDGF-BB and LPS; format: cell-based, rat; details: for X-gal blue staining (β-galactosidase) compared to the untreated: 0.1 to 10 ng/ml, 72 hours, X-gal one hour; for expression of a transgene operably coupled to a hGFAP promoter in HSC cell culture: summary statement
Experimental: A lacZ reporter assay kit for cell staining (InvivoGen, CA, USA) was used to detect the reporter gene activity in both stable and transient transfectants. Development of the blue end product was monitored at different time intervals (15, 30, 60, 90, and 120 minutes). The staining results were documented with a digital camera (DP12) attached to an Olympus inverted bright field microscope (IX51).
as §1
To determine possible induction of GFAP-lacZ expression by molecules with profibrotic and proinflammatory properties in activated HSC the T6/lacZ/C1 cells were treated with TGF-β1, PDGF-BB and LPS respectively at various concentrations (0, 0.1, 1 and 10 ng/ml) in the full DMEM medium for 72 hours. The cells were then stained with X-gal for one hour and photographed. […] In order to obtain truly quantitative data, a solution assay was employed to measure possible up-regulation of β-galactosidase activity by TGF-β1 in experiments below.

Molecule	GFAP mRNA level relative to basal level (normalized to 1) at 0 hour ([1]; 16 hour (P<0.005)) [fold]	GFAP mRNA level relative to basal level (normalized to 1) at 0 hour ([1]; 48 hours) [fold]	GFAP mRNA level relative to basal level (normalized to 1) at 0 hour ([1]; 72 hours) [fold]	GFAP mRNA level relative to basal level at 0 hour ([1]; first 24 hours)	induction of β-galactosidase activity vs non-induced ([2]; 1 ng/ml TGF-β1, low serum, 24 hours (P<0.05))	absolute enzymatic activity (β-galactosidase) ([2]; 10 ng/ml TGF-β1, 72 hours) [mU/μg]	fold induction of β-galactosidase specific activity, non-treatment normalized to 1 ([2]; 10 ng/ml TGF-β1, 72 hours)	induction of β-galactosidase activity vs non-induced ([2]; 10 ng/ml TGF-β1, low serum, 24, 48 and 72 hours (P<0.001))	transgene expression level ([2]; TGF-β1 1 ng/ml, 0.5% FBS, 2 and 8 hours)	β-galactosidase specific activity at peak ([2]; TGF-β1 1 ng/ml, 0.5% FBS, 24 hour) [mU/μg]	transgene expression level ([2]; TGF-β1 1 ng/ml, 0.5% FBS, 48 hours)	transgene expression level, % of the value at 0 hour ([2]; TGF-β1 1 ng/ml, 0.5% FBS, 72 hours) [%]	X-gal blue staining (β-galactosidase) compared to the untreated [3]	expression of a transgene operably coupled to a hGFAP promoter in HSC cell culture [3]
TGF-β1: recombinant human TGF-β1 (BioVision), pro-fibrotic factor	0.5	7	8.5	remained steady	induction was seen	0.43	nearly two fold	Significant induction	rapidly elevated	0.52	dropped to the same level as at 0 hour	58	more intense blue staining	induced in a dose-dependent manner
PDGF-BB: recombinant human PDGF-BB (BioVision), pro-proliferative factor (protein, UniProt P01127 82-190, looked up) Platelet-derived growth …: SLGSLTIAEPAMIAECKTRTEVFEISRRLIDRTNANFLVWPPCVEVQRCSGCCNNRNVQCRPTQVQLRPVQVRKIEIVRKKPIFKKATVTLEDHLACKCETVAAARPVT													less pronounced response	induced in a dose-dependent manner
